Test results published in article PMC7397269, “Synthesis and Evaluation of New Coumarin Derivatives as Antioxidant, Antimicrobial, and Anti-Inflammatory Agents” (Molecules, 2020).
In brackets after ≈: the same amount, converted by molar mass. Several values for one entry are separate records, joined by “and”; a condition that tells them apart may be missing. Equal values may be shown once.

How the values were obtained:
[1] = test system: Staphylococcus aureus ATCC 29213; assay: Agar well diffusion, S. aureus; type: cell-based; conditions: ATCC29213, 100 μL of 10 mg/mL in DMSO, read-out: diameter of inhibition zone, SA
How it was run: (§1)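 Agar well diffusion; NA for bacteria, SDA for yeast; inoculum 1 × 10^8 CFU/mL bacteria, 1 × 10^6 CFU/mL yeast. 100 μL of 10 mg/mL compound in DMSO per 10 mm well. 24 h, 37 °C; zone diameter, mm, n=3.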

[2] = test system: Bacillus subtilis ATCC 6633; assay: Agar well diffusion, B. subtilis; type: cell-based; conditions: ATCC6633, 100 μL of 10 mg/mL in DMSO, read-out: diameter of inhibition zone, BS
How it was run: as §1

[3] = test system: Bacillus megaterium ATCC 9885; assay: Agar well diffusion, B. megaterium; type: cell-based; conditions: Priestia megaterium, ATCC9885, 100 μL of 10 mg/mL in DMSO, read-out: diameter of inhibition zone, BM
How it was run: as §1

[4] = test system: Escherichia coli ATCC 2592; assay: Agar well diffusion, E. coli; type: cell-based; conditions: ATCC2592, 100 μL of 10 mg/mL in DMSO, read-out: diameter of inhibition zone, EC
How it was run: as §1

[5] = test system: Pseudomonas aeruginosa ATCC 27,953; assay: Agar well diffusion, P. aeruginosa; type: cell-based; conditions: ATCC27, 100 μL of 10 mg/mL in DMSO, read-out: diameter of inhibition zone, PA
How it was run: as §1

[6] = test system: Candida albicans NRRL Y-477; assay: Agar well diffusion, C. albicans; type: cell-based; conditions: NRRLY477, 100 μL of 10 mg/mL in DMSO, read-out: diameter of inhibition zone, CA
How it was run: as §1

[7] = test system: Bacillus subtilis ATCC 6633; assay: MIC, two-fold serial dilution, B. subtilis; type: cell-based; conditions: ATCC6633, read-out: Minimum inhibitory concentration, BS
How it was run: (§2)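 Compounds with agar-well inhibition zones >16 mm were retested by two-fold broth dilution at final concentrations of 1000, 500, 250 and 125 μg/mL. Inocula of 1 × 10^8 CFU/mL (bacteria) or 1 × 10^6 CFU/mL (yeast), 0.1 mL per 5 mL. MIC = lowest concentration without growth after 24 h at 37 °C.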

[8] = test system: Pseudomonas aeruginosa ATCC 27,953; assay: MIC, two-fold serial dilution, P. aeruginosa; type: cell-based; conditions: ATCC27, read-out: Minimum inhibitory concentration, PA
Description: The new molecules were individually tested for their antimicrobial activity in vitro against standard bacteria strains from the American Type Culture Collection (ATCC), namely, Staphylococcus aureus ATCC 29213, Bacillus subtilis ATCC 6633, Bacillus megaterium ATCC 9885 (Gram-positive), Escherichia coli ATCC 2592, and Pseudomonas aeruginosa ATCC 27,953 (Gram-negative). The compounds were also microbiologically tested against locally isolated Saccharomyces cerevisiae (yeast) and the standard Agricultural Research Service Culture Collection (NRRL) strain of the yeast-like pathogenic fungus Candida albicans NRRL Y-477. Primary screening was conducted using the agar well diffusion method using nutrient agar (NA) medium and Sabourand dextrose agar (SDA) medium for the tested pathological bacteria and yeast, respectively. […].
The bacteriostatic activity of the active compounds (having IZ > 16 mm) was then evaluated using the two-fold serial dilution technique. Two-fold serial dilutions of the tested compounds solutions were prepared using the proper nutrient broth to reach final concentrations of 1000, 500, 250, and 125 μg/mL. The tubes were then inoculated with the test microorganisms grown in their suitable broth at 37 °C for 24 h (1 × 10^8 CFU/mL for bacteria and 1 × 10^6 CFU/mL of yeast), 0.1 mL of the above inoculum was administered per 5 mL, and the tubes were incubated at 37 °C for 24 h. The lowest concentration showing no growth was taken as the MIC.

[9] = test system: Candida albicans NRRL Y-477; assay: MIC, two-fold serial dilution, C. albicans; type: cell-based; conditions: NRRLY477, read-out: Minimum inhibitory concentration, CA
How it was run: as §2

trypsin = assay: Proteinase-inhibitory activity; type: biochemical; conditions: 250 µg/mL; mean ± SD (n = 3)
How it was run: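 Trypsin (0.06 mg per 2 mL, 20 mM Tris-HCl pH 7.4) was preincubated 5 min with test sample at 250 µg/mL, then 0.8% casein was added for 20 min. Perchloric acid stopped the reaction and supernatant absorbance was read at 280 nm. % inhibition is relative to the no-sample control, in triplicate.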

COX-2 = target: T1, COX-2 (Homo sapiens, UniProt P35354); assay: COX-2 inhibition, Cayman assay kit; type: biochemical; conditions: for IC50: mean of two determinations; for SI, selectivity index (COX-1/COX-2): ratio of COX-1/COX-2 IC50
T1 construct: purchased Cayman Chemical 701080
T1 sequence (P35354 18-604): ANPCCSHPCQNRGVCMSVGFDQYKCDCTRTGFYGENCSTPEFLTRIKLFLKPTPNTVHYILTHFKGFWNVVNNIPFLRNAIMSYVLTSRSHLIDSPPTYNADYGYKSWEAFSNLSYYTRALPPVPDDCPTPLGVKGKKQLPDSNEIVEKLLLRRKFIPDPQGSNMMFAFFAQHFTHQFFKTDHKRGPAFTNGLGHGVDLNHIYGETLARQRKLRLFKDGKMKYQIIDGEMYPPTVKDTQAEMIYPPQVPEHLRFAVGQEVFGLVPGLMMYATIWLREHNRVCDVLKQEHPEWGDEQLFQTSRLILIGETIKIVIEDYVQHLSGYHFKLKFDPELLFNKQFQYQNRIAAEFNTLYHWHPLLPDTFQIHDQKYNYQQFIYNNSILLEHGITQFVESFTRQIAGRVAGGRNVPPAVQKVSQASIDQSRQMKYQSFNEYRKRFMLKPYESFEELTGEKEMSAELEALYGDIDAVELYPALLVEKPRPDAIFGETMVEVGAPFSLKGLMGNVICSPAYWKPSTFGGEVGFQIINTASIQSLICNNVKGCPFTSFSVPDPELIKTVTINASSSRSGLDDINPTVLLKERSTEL

Compound	zone of inhibition at 10000 µg/mL [1] [mm]	zone of inhibition at 10000 µg/mL [2] [mm]	zone of inhibition at 10000 µg/mL [3] [mm]	zone of inhibition at 10000 µg/mL [4] [mm]	zone of inhibition at 10000 µg/mL [5] [mm]	zone of inhibition at 10000 µg/mL [6] [mm]	MIC [7] [µg/mL]	MIC [8] [µg/mL]	MIC [9] [µg/mL]	% Inhibition (proteinase) (trypsin) [%]	IC50 (COX-2) [µM]	SI, selectivity index (COX-1/COX-2) (COX-2)	melting point [°C]
Cc1ccc2oc(=O)c3c(c2c1)OC(N)=C(C#N)C3c1ccc([N+](=O)[O-])cc1 (racemic) [2a, (±)-2-Amino-9-methyl-4-(4-nitrophenyl)-5-oxo-4H,5H-pyrano[3,2-c]chromene-3-carbonitrile]	24	22	25	18	20	22	500 (≈ 1330 µM)	500 (≈ 1330 µM)	500 (≈ 1330 µM)	17.38 ± 1.63	2.74	42.58	259 to 261
Cc1ccc2oc(=O)c3c(c2c1)OC(N)=C(C#N)C3c1ccco1 (racemic) [2b, (±)-2-Amino-4-(furan-2-yl)-9-methyl-5-oxo-4H,5H-pyrano[3,2-c]chromene-3-carbonitrile]	25	23	25	18	21	23	500 (≈ 1560 µM)	1000 (≈ 3120 µM)	500 (≈ 1560 µM)	74.68 ± 3.01	4.25	47.3 and 47.33	251 to 253
COc1cc(/C=N/C2=C(C#N)C(c3ccc([N+](=O)[O-])cc3)c3c(c4cc(C)ccc4oc3=O)O2)cc(OC)c1OC (racemic) [5c, (±)-9-methyl-4-(4-nitrophenyl)-5-oxo-2-((3,4,5-trimethoxybenzylidene)amino)-4H,5H-pyrano[3,2-c]chromene-3-carbonitrile]	23	23	24	24	25	24	500 (≈ 903 µM)	500 (≈ 903 µM)	500 (≈ 903 µM)	68.5 ± 6.23	13.3	1.39	221 to 223
Cc1ccc2oc(=O)c3c(c2c1)OC(/N=C/c1ccc(Cl)cc1Cl)=C(C#N)C3c1ccco1 (racemic) [5f, (±)-2-((2,4-dichlorobenzylidene)amino)-4-(furan-2-yl)-9-methyl-5-oxo-4H,5H-pyrano[3,2-c]chromene-3-carbonitrile]	25	23	20	20	21	22	500 (≈ 1050 µM)	1000 (≈ 2100 µM)	500 (≈ 1050 µM)	26.83 ± 5.33	3.1	29.1	> 300
NS(=O)(=O)c1ccc(NS(=O)(=O)c2c(O)c3cc(Cl)ccc3oc2=O)cc1 [7a, 6-Chloro-4-hydroxy-2-oxo-N-(4-sulfamoylphenyl)-2H-chromene-3-sulfonamide]	28	29	25	28	27	26	250 (≈ 580 µM)	250 (≈ 580 µM)	250 (≈ 580 µM)	18.78 ± 2.05	17.4	13.75	245 to 247
